Data from ChEMBL document CHEMBL5634083, “Targeting polyketide synthase 13 for the treatment of tuberculosis” (Eur J Med Chem, 2023).
Converted amounts (≈) assume the structure as drawn.

Columns and labels:
Format in all cases: functional
[1] = test system: Mycobacterium tuberculosis; assay: Antimycobacterial activity against multi-drug resistant Mycobacterium tuberculosis
[2] = test system: Mycobacterium tuberculosis; assay: Antibacterial activity against fluoroquinolone-resistant Mycobacterium tuberculosis H37Rv assessed as reduction in bacterial growth measured after 16 to 18 hrs by serial dilution method; conditions: time 16-18 hrs
[3] = test system: Mycobacterium tuberculosis; assay: Antitubercular activity against multi-drug resistant Mycobacterium tuberculosis assessed as reduction in microbial growth measured after 3 weeks by resazurin microplate reader assay; conditions: 504 h

SMILES: CCOC(=O)c1c(NC(=O)c2c(F)c(F)c(F)c(F)c2F)sc2c1CCN(CC)C2
- MIC [1]: 0.2 µM (≈ 0.0897 µg/mL)

SMILES: CC(=O)c1c(C)n(-c2ccc(N(C)C)cc2)c2ccc(O)c(CN3CCCC3)c12
- MIC90 [2]: 0.244 µM (≈ 0.0955 µg/mL)

SMILES: O=C(c1ccccc1)c1cc(Cl)ccc1OCc1nc(-c2ccc(C(F)(F)F)cc2)no1
- MIC [3]: 16 µg/mL
